These results are taken from patent US10226478B2, “Dosage regimen for sapacitabine and decitabine in combination for treating acute myeloid leukemia” (Cyclacel Limited, priority 2011, dated 2019).

Assay [1] concerns MV4-11 cells. As to the kind of experiment: 72 h single agent cytotoxicity, alamar blue assay. It is filed as cell-based. Particulars: Homo sapiens. The method, then:
(§1) In order to complete the combination studies, the cytotoxic effects of individual compounds were determined.
(§2) A dilution series for each drug was prepared in medium. Two hours after seeding, an equal volume of each compound was added at twice the desired concentration and incubated for 72 hours. All treatments were performed in triplicate. At the end of the incubation, a 20% stock of alamar blue (Roche, Lewes, UK) was prepared in media, and an equal volume was added to each well and incubated for three hours. Absorbance was read at 544-595 nm and data was analysed (Excel Fit v4.0) to determine the IC50 (concentration of compound that inhibited cell growth by 50%) for each compound.
For orientation: The colour change of resazurin is a common sign of viable cells or microbes.

Assay [2] deals with HL60 cells. As to the kind of experiment: 72 h single agent cytotoxicity, alamar blue assay. Format: cell-based. Particulars: Homo sapiens. On the procedure: as §1, §2
In assay [3] the test system is HL60 cells. As to the kind of experiment: Annexin V staining (apoptosis, flow cytometry). Particulars: single agents, azacitidine 72 and 96 hours, CNDAC 48 or 72 hours. In general terms: In flow cytometry, cells or beads pass a laser one at a time.
Method: Single agent treatments were also performed as controls. After incubation cells were centrifuged at 500 g for 5 min, washed twice in PBS and once in annexin buffer (10 mM Hepes pH 7.4, 2.5 mM CaCl2, and 140 mM NaCl). Cells were resuspended at 1×10^6/ml and 100 μl was transferred to a 5 ml tube prior to incubation for 10 min in the dark at room temperature with 5 μl of annexin V-FITC stain (Beckton Dickinson) and 10 μl of propidium iodide [50 mg/ml]. Annexin buffer (1 ml) was added and the cells were analysed by flow cytometry. Annexin V positive cells (apoptotic) were designated on the basis of green fluorescence and propidium iodide (dead) positive cells were designated on the basis of red fluorescence.
In assay [4] the test system is cell line that is resistant to cytarabine. Particulars: cited from earlier work.

Like-named read-outs stand apart in the source and are kept apart here.

By IC50 is commonly meant the concentration at which inhibition is half-maximal. Take `N#C[C@H]1[C@H](O)[C@@H](CO)O[C@H]1n1ccc(N)nc1=O` [CNDAC, 1-(2-C-Cyano-2-deoxy-β-D-arabino-pentafuranosyl)-cytosine]: the half-inhibitory concentration (IC50) in assay [1] was found to be 460 nM; in assay [2] (HL-60, HL60 cells, 72 hour, read-out: 1×IC50), 133 nM; in assay [2] (HL-60 cells, read-out: IC50) it was 130 nM. The “annexin V, proportion of apoptotic cells” value in assay [3] was “little effect”.
Regarding `Nc1ccn([C@@H]2O[C@H](CO)[C@@H](O)[C@@H]2O)c(=O)n1` [cytarabine], the half-maximal inhibitory concentration (IC50) in assay [4] (after 5-azacitidine (upregulation of dCK)) was 0.55 µM; in assay [4] (before 5-azacitidine), 12.5 µM.
In the case of `Nc1ncn([C@@H]2O[C@H](CO)[C@@H](O)[C@H]2O)c(=O)n1` [azacitidine, 4-amino-1-β-D-ribofuranosyl-s-triazin-2(1H)-one], the IC50 was determined as 128 nM in assay [2] (HL-60, HL60 cells, 72 hour, half of the IC50, read-out: 0.5×IC50) and 130 nM in assay [2] (HL-60 cells, half of the IC50, read-out: 0.5×IC50). Also, the “annexin V, proportion of apoptotic cells” value in assay [3] is recorded as “small increase in the proportion of apoptotic cells”.
